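96-well plates; 48 h exposure; 5 concentrations. Endpoints by linear interpolation between flanking doses. Not reached: highest tested concentration assigned. TGI: concentration producing complete growth inhibition.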
Key:
Assay in all cases: inhibition of tumour cell growth, NCI panel, 48 h
[1] = test system: M14 melanoma
[2] = test system: UACC-257 melanoma
[3] = test system: SN12C renal
[4] = test system: HS 578T breast
[5] = test system: NCI-H226 lung
[6] = test system: MDA-MB-231 breast
[7] = test system: HCT-15 colon
[8] = test system: SK-OV-3 ovarian
[9] = test system: U251 CNS
[10] = test system: UO-31 renal
[11] = test system: CCRF-CEM leukemia
[12] = test system: LOX IMVI melanoma
[13] = test system: OVCAR-3 ovarian
[14] = test system: NCI-H522 lung
[15] = test system: SW-620 colon
[16] = test system: HOP-92 NSCLC
[17] = test system: K-562 leukemia
[18] = test system: MALME-3M melanoma
[19] = test system: NCI/ADR-RES ovarian
[20] = test system: MCF7 breast

| Structure (SMILES) | TGI [1] | TGI [2] | TGI [3] | TGI [4] | TGI [5] | TGI [6] | TGI [7] | TGI [8] | TGI [9] | TGI [10] | TGI [11] | TGI [12] | TGI [13] | TGI [14] | TGI [15] | TGI [16] | TGI [17] | TGI [18] | TGI [19] | TGI [20] |
| --- | --- | --- | --- | --- | --- | --- | --- | --- | --- | --- | --- | --- | --- | --- | --- | --- | --- | --- | --- | --- |
| O=c1c(-c2ccccc2F)coc2cc(F)ccc12 | > 100 µM | > 100 µM | > 100 µM | > 100 µM | > 100 µM | > 100 µM | > 100 µM | > 100 µM | > 100 µM | > 100 µM | > 100 µM | > 100 µM | > 100 µM | > 100 µM | > 100 µM | > 100 µM | – | – | – | – |
| COc1ccc(NC(=O)C(C)Oc2ccc(OCC3CCCCC3)cc2)cc1 (stereo not given) | > 100 µM | > 100 µM | > 100 µM | – | > 100 µM | – | > 100 µM | > 100 µM | > 100 µM | > 100 µM | > 100 µM | > 100 µM | > 100 µM | > 100 µM | – | – | > 100 µM | > 100 µM | – | – |
| O=C(NNC(=S)NCc1ccccc1)c1csc(NC(=S)NC2CCCCC2)n1 | > 100 µM | 43 µM | 95.7 µM | – | 64.7 µM | 83.3 µM | > 100 µM | > 100 µM | > 100 µM | 58.2 µM | > 100 µM | > 100 µM | > 100 µM | > 100 µM | > 100 µM | – | – | > 100 µM | 96.4 µM | > 100 µM |
| CC(=O)n1cc(OP(=O)(Oc2ccccc2)Oc2ccccc2)c2ccccc21 | 52.1 µM | 77.2 µM | > 100 µM | > 100 µM | > 100 µM | 86.4 µM | > 100 µM | – | > 100 µM | > 100 µM | 50.4 µM | 62.1 µM | 93.6 µM | – | > 100 µM | – | 67.4 µM | > 100 µM | 44.3 µM | 31.5 µM |
| CCOC(=O)c1cc(Br)c(-c2cc(C)no2)[nH]1 | > 100 µM | > 100 µM | > 100 µM | – | > 100 µM | > 100 µM | > 100 µM | > 100 µM | > 100 µM | > 100 µM | – | > 100 µM | 95.1 µM | 78.9 µM | > 100 µM | > 100 µM | – | 61.3 µM | > 100 µM | – |
| COC(=O)C(Br)C1CCc2ccccc21 (stereo not given) | > 100 µM | > 100 µM | > 100 µM | – | > 100 µM | – | > 100 µM | > 100 µM | > 100 µM | > 100 µM | > 100 µM | > 100 µM | > 100 µM | – | > 100 µM | > 100 µM | > 100 µM | > 100 µM | – | – |
| CCOC(OCC)N1C(=O)C2(C(OCC)OCC)CC3C(OC(=O)N3N)c3cccc1c32 (stereo not given) | – | > 100 µM | > 100 µM | – | > 100 µM | > 100 µM | > 100 µM | > 100 µM | > 100 µM | > 100 µM | > 100 µM | > 100 µM | > 100 µM | – | > 100 µM | – | – | > 100 µM | > 100 µM | > 100 µM |
| COc1ccc(/C(=C/n2ccnc2)C(O)c2ccc(OC)c(OC)c2)cc1OC (stereo not given) | > 100 µM | > 100 µM | > 100 µM | – | > 100 µM | – | > 100 µM | > 100 µM | > 100 µM | > 100 µM | > 100 µM | > 100 µM | > 100 µM | – | > 100 µM | > 100 µM | > 100 µM | – | – | – |
| CN(C)c1snc2c1c(=O)n(C)c(=O)n2C | – | > 100 µM | > 100 µM | – | > 100 µM | – | > 100 µM | > 100 µM | > 100 µM | > 100 µM | > 100 µM | > 100 µM | > 100 µM | > 100 µM | > 100 µM | – | > 100 µM | > 100 µM | – | – |
| CCOc1ccccc1-c1nc2c(s1)C(=O)c1ccccc1C2=O | 36.7 µM | 27.3 µM | > 100 µM | 62.3 µM | – | 12.7 µM | > 100 µM | 28.2 µM | 27.7 µM | 25.4 µM | – | 16.7 µM | 8.01 µM | 97.7 µM | 23.4 µM | 25 µM | 32.4 µM | 19.8 µM | – | 46.3 µM |
| O=C(O)[C@H](Cc1ccccc1)NCCN1CCC[C@H]1C(=O)O | > 100 µM | – | > 100 µM | – | – | > 100 µM | > 100 µM | > 100 µM | > 100 µM | > 100 µM | – | – | > 100 µM | > 100 µM | > 100 µM | 72.3 µM | > 100 µM | > 100 µM | > 100 µM | > 100 µM |
| Clc1ccc(OCc2nnc3sc(-c4ccc(-c5ccc(Cl)cc5Cl)o4)nn23)cc1 | > 100 µM | > 100 µM | > 100 µM | > 100 µM | > 100 µM | > 100 µM | > 100 µM | > 100 µM | > 100 µM | > 100 µM | > 100 µM | > 100 µM | > 100 µM | > 100 µM | > 100 µM | > 100 µM | > 100 µM | > 100 µM | > 100 µM | – |
| CC(C)(C)OC(=O)NCCNCCNc1ccccc1 | > 100 µM | > 100 µM | > 100 µM | – | > 100 µM | > 100 µM | > 100 µM | > 100 µM | > 100 µM | > 100 µM | > 100 µM | > 100 µM | > 100 µM | > 100 µM | > 100 µM | > 100 µM | > 100 µM | > 100 µM | > 100 µM | > 100 µM |
| Cn1c2ccccc2c(=O)c2cccc(C(=O)NCC(=O)O)c21 | > 100 µM | > 100 µM | > 100 µM | > 100 µM | > 100 µM | > 100 µM | > 100 µM | > 100 µM | > 100 µM | > 100 µM | – | > 100 µM | > 100 µM | – | > 100 µM | – | > 100 µM | > 100 µM | > 100 µM | > 100 µM |

Reference: PubChem BioAssay (NCI)
